Legend:
NCI-H1373 cells = experiment: NCI-H1373 cell proliferation inhibition assay; assay type: cell-based; conditions: Homo sapiens, NCI-H1373, 144 h; 6 days of incubation, Cell Titer Blue
Protocol: Human lung adenocarcinoma cells NC-H1373 (ATCC, CRL-5866M) were cultured in a cell incubator at 37° C. and 5% CO2 using RPMI-1640 medium containing 10% FBS and 1% […]. The cells in the logarithmic growth phase were counted by digestion and inoculated in a 96-well plate at 1500 NCI-H1373 per well, and the plate was placed in an incubator overnight. The next day, test compounds were formulated in 10 mM stock solution by using DMSO and 3-fold diluted in gradient from a maximum concentration of 10 μM by using RPMI-1640 medium, and 10 gradient concentrations were set with 2 parallel wells per concentration gradient. After 6 days of incubation, 100 μL of Cell Titer Blue working solution was added to each well and the chemiluminescence value was read in a microplate reader. IC50 was calculated using GraphPad Prism7.0 software.

PARP7 = PARP7 (Homo sapiens (Human), UniProt Q7Z3E1); experiment: Enzymatic biochemical assay of PARP (chemiluminescence detection kit), PARP7; conditions: read-out: Inhibitory activity against PAPR7 (IC50)
Sequence of PARP7 (Q7Z3E1 whole entry): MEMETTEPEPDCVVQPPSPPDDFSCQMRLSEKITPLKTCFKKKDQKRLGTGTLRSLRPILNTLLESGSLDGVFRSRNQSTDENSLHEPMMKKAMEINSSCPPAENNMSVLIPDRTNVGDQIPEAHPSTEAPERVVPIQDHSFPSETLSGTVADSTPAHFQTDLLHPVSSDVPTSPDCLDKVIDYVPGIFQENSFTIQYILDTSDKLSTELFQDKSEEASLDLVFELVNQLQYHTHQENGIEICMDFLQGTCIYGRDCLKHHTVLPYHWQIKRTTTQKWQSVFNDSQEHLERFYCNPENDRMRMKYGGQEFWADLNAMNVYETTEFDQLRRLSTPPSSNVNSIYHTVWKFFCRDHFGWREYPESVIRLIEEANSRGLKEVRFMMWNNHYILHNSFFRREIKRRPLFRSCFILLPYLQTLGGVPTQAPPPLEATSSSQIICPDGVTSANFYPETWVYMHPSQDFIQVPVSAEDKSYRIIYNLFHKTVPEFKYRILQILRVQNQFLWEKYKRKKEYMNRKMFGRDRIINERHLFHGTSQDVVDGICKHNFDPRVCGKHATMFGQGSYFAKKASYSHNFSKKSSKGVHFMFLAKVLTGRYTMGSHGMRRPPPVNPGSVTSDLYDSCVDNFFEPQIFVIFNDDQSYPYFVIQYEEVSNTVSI
Protocol: This assay adopted PARP1, TNKS1, TNKS2, PARP7 and PARP14 chemiluminescence detection kits (BPS, Cat No. 80551/80552/80573/80578/79729/80568) for enzymatic biochemical assay of PARP. The specific scheme was as follows: the 1× histone mixture was added to a 96-well plate at 50 μL per well, and the plate was incubated overnight at 4° C. The next day, after the plate was washed with PBST, 200 μL of blocking buffer per well was added, and the plate was incubated for 90 min. After the plate was washed with PBST again, 5 μL of inhibitor, 20 μL of 1×PARP buffer and 25 μL of […] were added to each well, and the plate was incubated at room temperature for 30 min. After the plate was washed with PBST, 100 μL of Elisa ECL substrate A and B mixture was added to each well, chemiluminescence value was immediately read using a plate reader, and IC50 values were calculated.

[1] = Metabolic stability in liver microsome; assay type: in vitro ADME; conditions: liver microsomes; 0.5 mg/mL CD1 mouse liver microsome, 0.5 μM test compound, NADPH and UDPGA, 37° C.
Protocol: 0.5 mg/mL CD1 mouse liver microsome solution, 0.5 μM test compound, 1.0 mM reduced nicotinamide adenine dinucleotide phosphate (NADPH), and 1.0 mM uridine diphosphate-A-glucuronic acid (UDPGA) were added to the incubation plate and mixed, and the plate was incubated at 37° C. for 0, 30, 60, 120 min separately. The positive control group was set as 0.5 μM CYP3A4 probe substrate-testosterone and 0.5 μM UGT probe substrate-7-hydroxycoumarin incubated with microsomes for 0 and 120 min in the presence of NADPH and UDPGA; the negative control group (NC) was set as the test substance incubated with microsomes for 0 and 120 min without any coenzyme. After the reaction was terminated by adding pre-cooled methanol at each termination time, the reaction mixture was centrifuged at 4000 rpm for 10 min, the supernatant was taken and the remaining amount of the parent drug in the sample was measured by LC-MS/MS, the results of which are shown in Table 4.

MDR1 = experiment: MDCKII-MDR1 cell permeability assay; assay type: in vitro ADME; conditions: dog, MDCK-MDR1, 1 μM test compound; for Papp A→B at 2 h, 1 μM: apical to basolateral; for Papp B→A at 2 h, 1 μM: basolateral to apical
Protocol: 50 μL of MDCKII-MDR1 cell suspension with a density of 1.56×10^6 cells/mL was seeded into a Transwell well of a 96-well plate, and the plate was cultured in a cell incubator at 37° C. in 5% CO2. […] The medium in Transwell was discarded, and HBSS equilibration solution was added and incubated at 37° C. for 30 min. Subsequently, an apical to basolateral drug transport rate assay was performed by adding 1 μM test compound solution to the Transwell AB side and a blank equilibration solution to the BL side. When the basolateral to apical drug transport rate assay was performed, the operation steps were reversed. Subsequently, the cells were placed in an incubator for 2 h. After the incubation, samples were taken from the basolateral and apical respectively, and after centrifugation, the supernatant was subjected to LC-MS/MS analysis, and the apparent permeability coefficient (Papp) was calculated, the results of which are shown in Table 5.

IC50 (NCI-H1373 cells) [nM]	IC50 (PARP7) [nM]	Compound	other results
< 50		[2H]c1c(COC[C@H](C)Nc2cn[nH]c(=O)c2C(F)(F)F)nn2c1CN(c1ncc(C(F)(F)F)cn1)CC2 [Compound 25, (S)-4-(trifluoromethyl)-5-((1-((5-(5-(trifluoromethyl)pyrimidin-2-yl)-4,5,6,7-tetrahydropyrazolo[1,5-a]pyrazin-2-yl-d)methoxy)propan-2-yl)amino)pyridazin-3(2H)-one]	
< 50	10 to 50	C[C@@H](COCc1nc2n(n1)CCN(c1ncc(C(F)(F)F)cn1)C2)Nc1cn[nH]c(=O)c1C(F)(F)F [Compound 9, (S)-4-(trifluoromethyl)-5-((1-((7-(5-(trifluoromethyl)pyrimidin-2-yl)-5,6,7,8-tetrahydro-[1,2,4]triazolo[1,5-a]pyrazin-2-yl)methoxy)propan-2-yl)amino)pyridazin-3(2H)-one]	half-life at 0.5 μM [1]: > 0.5 h
< 50	10 to 50	C[C@@H](COCc1nn2c(c1Cl)CN(c1ncc(C(F)(F)F)cn1)CC2)Nc1cn[nH]c(=O)c1C(F)(F)F [Compound 13, (S)-5-((1-((3-chloro-5-(5-(trifluoromethyl)pyrimidin-2-yl)-4,5,6,7-tetrahydropyrazolo[1,5-a]pyrazin-2-yl)methoxy)propan-2-yl)amino)-4-(trifluoromethyl)pyridazin-3(2H)-one]	efflux ratio at 2 h, 1 μM (MDR1): 2.28; Papp A→B at 2 h, 1 μM (MDR1): 6.67 ×10⁻⁶ cm/s; Papp B→A at 2 h, 1 μM (MDR1): 14.8 ×10⁻⁶ cm/s
< 50		C[C@@H](COCc1nc2n(n1)CCN(c1ccc(C(F)(F)F)cn1)C2)Nc1cn[nH]c(=O)c1C(F)(F)F [Compound 26, (S)-4-(trifluoromethyl)-5-((1-((7-(5-(trifluoromethyl)pyridin-2-yl)-5,6,7,8-tetrahydro[1,2,4]triazolo[1,5-a]pyrazin-2-yl)methoxy)propan-2-yl)amino)pyridazin-3(2H)one]	half-life at 0.5 μM [1]: > 1.67 h
50 to 100		O=c1[nH]ncc(N2CCC[C@H]2COCc2nc3n(n2)CCN(c2ncc(C(F)(F)F)cn2)C3)c1C(F)(F)F [Compound 28, (S)-4-(trifluoromethyl)-5-(2-(((7-(5-(trifluoromethyl)pyrimidin-2-yl)-5,6,7,8-tetrahydro-[1,2,4]triazolo[1,5-a]pyrazin-2-yl)methoxy)methyl)pyrrolidin-1-yl)pyridazin-3(2H)-one]	

Continued, compound first:

Compound	IC50 (NCI-H1373 cells) [nM]	IC50 (PARP7) [nM]	other results
[2H]C([2H])(OC[C@H](C)Nc1cn[nH]c(=O)c1C(F)(F)F)c1cc2n(n1)CCN(c1cnc(C(F)(F)F)cn1)C2([2H])[2H] [Compound 21, (S)-4-(trifluoromethyl)-5-((1-((5-(5-(trifluoromethyl)pyrazin-2-yl)-4,5,6,7-tetrahydropyrazolo[1,5-a]pyrazin-2-yl-4,4-d2)methoxy-d2)propan-2-yl)amino)pyridazin-3(2H)-one]	< 50	< 10	
[2H]C([2H])(OC[C@H](C)Nc1cn[nH]c(=O)c1C(F)(F)F)c1cc2n(n1)CCN(c1ncc(C(F)(F)F)cn1)C2([2H])[2H] [Compound 2, (S)-4-(trifluoromethyl)-5-((1-((5-(5-(trifluoromethyl)pyrimidin-2-yl)-4,5,6,7-tetrahydropyrazolo[1,5-a]pyrazin-2-yl-4,4-d2)methoxy-d2)propan-2-yl)amino)pyridazin-3(2H)-one]	< 50		
CC[C@@H](COCc1nc2n(n1)CCN(c1ncc(C(F)(F)F)cn1)C2)Nc1cn[nH]c(=O)c1C(F)(F)F [Compound 37, (S)-4-(trifluoromethyl)-5-((1-((7-(5-(trifluoromethyl)pyrimidin-2-yl)-5,6,7,8-tetrahydro-[1,2,4]triazolo[1,5-a]pyrazin-2-yl)methoxy)butan-2-yl)amino)pyridazin-3(2H)-one]			half-life at 0.5 μM [1]: > 1.67 h
C[C@@H](CO[C@H](C)c1cc2n(n1)CCN(c1ncc(C(F)(F)F)cn1)C2)Nc1cn[nH]c(=O)c1C(F)(F)F [Compound 3-II, 4-(Trifluoromethyl)-5-(((S)-1-((R)-1-(5-(5-(trifluoromethyl)pyrimidin-2-yl)-4,5,6,7-tetrahydropyrazolo[1,5-a]pyrazin-2-yl)ethoxy)propan-2-yl)amino)pyridazin-3(2H)-one]		50 to 100	
CSc1cnc(N2CCn3nc(COC[C@H](C)Nc4cn[nH]c(=O)c4C(F)(F)F)cc3C2)nc1 [Compound 39, (S)-5-((1-((5-(5-(methylthio)pyrimidin-2-yl)-4,5,6,7-tetrahydropyrazolo[1,5-a]pyrazin-2-yl)methoxy)propan-2-yl)amino)-4-(trifluoromethyl)pyridazin-3(2H)-one]	< 50		efflux ratio at 2 h, 1 μM (MDR1): 4.09; Papp A→B at 2 h, 1 μM (MDR1): 8.82 ×10⁻⁶ cm/s; Papp B→A at 2 h, 1 μM (MDR1): 35.5 ×10⁻⁶ cm/s
C[C@@H](COCc1nn2c(c1Cl)CN(c1cnc(C(F)(F)F)cn1)CC2)Nc1cn[nH]c(=O)c1C(F)(F)F [Compound 14, (S)-5-((1-((3-chloro-5-(5-(trifluoromethyl)pyrazin-2-yl)-4,5,6,7-tetrahydropyrazolo[1,5-a]pyrazin-2-yl)methoxy)propan-2-yl)amino)-4-(trifluoromethyl)pyridazin-3(2H)-one]	50 to 100		
C[C@@H](COCc1cc2n(n1)CCN(c1cnc(C(F)(F)F)cn1)C2)Nc1cn[nH]c(=O)c1C(F)(F)F [Compound 5, (S)-4-(trifluoromethyl)-5-((1-((5-(5-(trifluoromethyl)pyrazin-2-yl)-4,5,6,7-tetrahydropyrazolo[1,5-a]pyrazin-2-yl)methoxy)propan-2-yl)amino)pyridazin-3(2H)-one]	< 50	< 10	
C[C@@H](COCc1cc2n(n1)CCN(c1ncc(C(F)(F)F)s1)C2)Nc1cn[nH]c(=O)c1C(F)(F)F [Compound 30]	50 to 100		
[2H]C([2H])(OC[C@H](C)Nc1cn[nH]c(=O)c1C(F)(F)F)c1cc2n(n1)CCN(c1ccc(C#N)cn1)C2([2H])[2H] [Compound 23, (S)-6-(2-((2-((6-oxo-5-(trifluoromethyl)-1,6-dihydropyridazin-4-yl)amino)propoxy)methyl-d2)-6,7-dihydropyrazolo[1,5-a]pyrazin-5(4H)-yl-4,4-d2)nicotinonitrile]	50 to 100		
C[C@@H](COCc1nn2c(c1C(F)(F)F)CN(c1ncc(C(F)(F)F)cn1)CC2)Nc1cn[nH]c(=O)c1C(F)(F)F [Compound 19, (S)-4-(trifluoromethyl)-5-((1-((3-(trifluoromethyl)-5-(5-(trifluoromethyl)pyrimidin-2-yl)-4,5,6,7-tetrahydropyrazolo[1,5-a]pyrazin-2-yl)methoxy)propan-2-yl)amino)pyridazin-3(2H)-one]	< 50		
C[C@H](OC[C@H](C)Nc1cn[nH]c(=O)c1C(F)(F)F)c1cc2n(n1)CCN(c1ncc(C(F)(F)F)cn1)C2 [Compound 3-I, 4-(Trifluoromethyl)-5-(((S)-1-((S)-1-(5-(5-(trifluoromethyl)pyrimidin-2-yl)-4,5,6,7-tetrahydropyrazolo[1,5-a]pyrazin-2-yl)ethoxy)propan-2-yl)amino)pyridazin-3(2H)-one]	< 50	< 10	
C[C@@H](COCc1cc2n(n1)CCN(c1ccc(C(F)(F)F)cn1)C2=O)Nc1cn[nH]c(=O)c1C(F)(F)F [Compound 11, (S)-2-((2-((6-oxo-5-(trifluoromethyl)-1,6-dihydropyridazin-4-yl)amino)propoxy)methyl)-5-(5-(trifluoromethyl)pyridin-2-yl)-6,7-dihydropyrazolo[1,5-a]pyrazin-4(5H)-one]	50 to 100		half-life at 0.5 μM [1]: > 1.67 h
